Assay results published in patent US12559506B2, “Indazole based compounds and associated methods of use” (Arvinas Operations, Inc., priority 2021, dated 2026).
Read-outs that look alike come from different tables or passages of the source.

Biological target: T1, LRRK2 (endogenous, HiBit tagged) (Homo sapiens, UniProt Q5S007)
T1 construct: endogenous in cells; host or cells: HEK293 cells with HiBit knock-in at the endogenous LRRK2 locus, stably expressing firefly luciferase
Experiment: Endogenous LRRK2 degradation assay, endogenous gene C-terminally HiBit-tagged in HEK293 cells (Nano-Glo Dual Luciferase)
Format: cell-based
Method in brief: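 LRRK2-HiBit quantified via Nano-Glo Dual Luciferase in HEK293 knock-in cells co-expressing firefly luciferase, after 24 h exposure to compound (1 μM final top, 1:3, 11 points). Values normalised to DMSO median per plate and curve-fitted; Alamar Blue viability run alongside.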

[1] = endogenous HiBit-tagged LRRK2, HEK293 cells, 24 hours, read-out: **Endogenous WT Dmax (%)
[2] = endogenous HiBit-tagged LRRK2, HEK293 cells, 24 hours, read-out: *Endogenous WT DC50
[3] = endogenous HiBit-tagged LRRK2 in HEK293 cells, 24 hours treatment, read-out: Endogenous WT DC50
[4] = endogenous HiBit-tagged LRRK2 in HEK293 cells, 24 hours treatment, read-out: Endogenous WT Dmax
[5] = endogenous HiBit-tagged LRRK2 in HEK293 cells, 24 hours treatment, read-out: *Endogenous WT DC50
[6] = endogenous HiBit-tagged LRRK2 in HEK293 cells, 24 hours treatment, read-out: **Endogenous WT Dmax (%)

T1 sequence (Q5S007 whole entry): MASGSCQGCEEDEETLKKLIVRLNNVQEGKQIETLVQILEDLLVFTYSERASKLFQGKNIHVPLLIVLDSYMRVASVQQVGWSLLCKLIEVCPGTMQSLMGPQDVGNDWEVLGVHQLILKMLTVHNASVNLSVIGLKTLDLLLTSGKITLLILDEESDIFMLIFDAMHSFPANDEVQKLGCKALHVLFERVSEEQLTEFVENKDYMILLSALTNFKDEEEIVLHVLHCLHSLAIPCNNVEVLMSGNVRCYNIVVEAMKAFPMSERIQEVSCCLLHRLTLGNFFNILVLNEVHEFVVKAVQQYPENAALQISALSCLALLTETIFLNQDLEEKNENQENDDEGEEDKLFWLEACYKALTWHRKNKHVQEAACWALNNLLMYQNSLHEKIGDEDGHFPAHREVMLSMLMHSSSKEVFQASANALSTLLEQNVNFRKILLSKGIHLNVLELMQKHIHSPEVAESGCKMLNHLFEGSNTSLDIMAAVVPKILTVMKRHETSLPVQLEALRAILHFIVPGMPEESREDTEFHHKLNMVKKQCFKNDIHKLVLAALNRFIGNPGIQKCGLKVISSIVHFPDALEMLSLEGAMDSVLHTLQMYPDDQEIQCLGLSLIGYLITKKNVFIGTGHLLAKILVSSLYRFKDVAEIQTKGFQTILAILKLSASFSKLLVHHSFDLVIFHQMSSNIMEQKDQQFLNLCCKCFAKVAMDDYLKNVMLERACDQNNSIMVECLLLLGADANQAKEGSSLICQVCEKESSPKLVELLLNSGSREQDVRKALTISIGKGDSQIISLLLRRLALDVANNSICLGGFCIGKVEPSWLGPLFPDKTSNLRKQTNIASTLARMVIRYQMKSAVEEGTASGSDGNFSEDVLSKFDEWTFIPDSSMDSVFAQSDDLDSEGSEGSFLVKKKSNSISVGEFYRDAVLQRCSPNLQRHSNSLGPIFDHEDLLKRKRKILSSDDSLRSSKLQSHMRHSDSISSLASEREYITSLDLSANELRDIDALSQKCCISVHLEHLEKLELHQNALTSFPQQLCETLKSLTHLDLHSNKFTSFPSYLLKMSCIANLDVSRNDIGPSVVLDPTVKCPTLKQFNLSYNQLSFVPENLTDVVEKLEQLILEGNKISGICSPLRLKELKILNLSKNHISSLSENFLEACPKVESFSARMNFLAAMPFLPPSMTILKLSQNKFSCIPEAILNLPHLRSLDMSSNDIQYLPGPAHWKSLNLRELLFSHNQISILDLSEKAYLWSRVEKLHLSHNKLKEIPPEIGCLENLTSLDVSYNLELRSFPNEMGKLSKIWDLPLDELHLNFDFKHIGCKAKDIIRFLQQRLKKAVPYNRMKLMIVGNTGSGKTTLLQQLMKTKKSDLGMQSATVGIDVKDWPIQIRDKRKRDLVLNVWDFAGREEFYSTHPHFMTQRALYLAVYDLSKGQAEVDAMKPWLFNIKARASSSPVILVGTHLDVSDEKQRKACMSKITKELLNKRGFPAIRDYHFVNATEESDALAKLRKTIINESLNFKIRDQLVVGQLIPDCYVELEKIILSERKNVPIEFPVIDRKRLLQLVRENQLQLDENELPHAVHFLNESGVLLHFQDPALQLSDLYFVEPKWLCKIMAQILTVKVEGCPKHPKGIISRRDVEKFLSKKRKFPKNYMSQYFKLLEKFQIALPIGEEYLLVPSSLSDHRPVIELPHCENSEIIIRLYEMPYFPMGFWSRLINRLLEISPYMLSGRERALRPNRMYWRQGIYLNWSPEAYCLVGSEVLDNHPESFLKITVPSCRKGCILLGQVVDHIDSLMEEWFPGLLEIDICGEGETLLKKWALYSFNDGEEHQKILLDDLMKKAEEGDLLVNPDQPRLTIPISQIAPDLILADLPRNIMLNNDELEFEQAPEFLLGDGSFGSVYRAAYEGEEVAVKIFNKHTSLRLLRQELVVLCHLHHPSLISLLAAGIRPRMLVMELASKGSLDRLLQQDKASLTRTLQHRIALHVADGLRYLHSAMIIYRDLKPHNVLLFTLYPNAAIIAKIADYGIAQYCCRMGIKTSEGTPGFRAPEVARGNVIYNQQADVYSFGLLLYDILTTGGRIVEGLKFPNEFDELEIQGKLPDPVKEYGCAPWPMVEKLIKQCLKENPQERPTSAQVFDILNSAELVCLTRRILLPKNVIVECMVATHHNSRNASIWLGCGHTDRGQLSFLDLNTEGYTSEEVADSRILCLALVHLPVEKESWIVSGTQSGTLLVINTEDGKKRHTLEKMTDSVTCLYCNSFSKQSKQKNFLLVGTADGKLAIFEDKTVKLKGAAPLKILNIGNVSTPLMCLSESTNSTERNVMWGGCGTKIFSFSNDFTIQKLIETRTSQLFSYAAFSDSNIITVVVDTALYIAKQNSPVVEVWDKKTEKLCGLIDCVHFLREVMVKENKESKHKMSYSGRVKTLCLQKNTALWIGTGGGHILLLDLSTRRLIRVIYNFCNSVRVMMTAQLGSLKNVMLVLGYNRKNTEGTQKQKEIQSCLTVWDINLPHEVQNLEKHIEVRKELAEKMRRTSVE

| SMILES | DC50 [3] [nM] | Dmax [4] [%] | DC50 [5] [nM] | Dmax [6] [%] | other results |
| --- | --- | --- | --- | --- | --- |
| CC1(Oc2ccc3[nH]nc(-c4cc(N5CCN(CC6(F)CCN(CC7CCN(c8cccc9c8CN(C8CCC(=O)NC8=O)C9=O)CC7)CC6)CC5)ncn4)c3c2)CC1 (stereo not shown) [Compound 179, 3-[4-[4-[[4-fluoro-4-[[4-[6-[5-(1-methylcyclopropoxy)-2H-indazol-3-yl]pyrimidin-4-yl]piperazin-1-yl]methyl]-1-piperidyl]methyl]-1-piperidyl]-1-oxo-isoindolin-2-yl]piperidine-2,6-dione] | – | – | – | – | Dmax [1]: 50 to 70%; DC50 [2]: < 10 nM |
| CC1(Oc2ccc3n[nH]c(-c4cc(N5CCC(O[C@H]6CC[C@H](CN7CCN(c8ccc9c(c8F)CN(C8CCC(=O)NC8=O)C9=O)CC7)CC6)CC5)ncn4)c3c2)CC1 (stereo partly shown) [Compound 213, 3-[4-fluoro-5-[4-[[4-[[1-[6-[5-(1-methylcyclopropoxy)-2H-indazol-3-yl]pyrimidin-4-yl]-4-piperidyl]oxy]cyclohexyl]methyl]piperazin-1-yl]-1-oxo-isoindolin-2-yl]piperidine-2,6-dione] | < 10 | ≥ 70 | – | – | – |
| COc1c(N2CCC(CN3CCN(CC4CCN(c5cc(-c6n[nH]c7cnc(OC8(C)CC8)cc67)ncn5)CC4)C[C@H]3C)CC2)ccc2c1CN(C1CCC(=O)NC1=O)C2=O (stereo partly drawn) [Compound 324, 3-[4-methoxy-5-(4-{[(2R)-2-methyl-4-[(1-{6-[5-(1-methylcyclopropoxy)-1H-pyrazolo[3,4-c]pyridin-3-yl]pyrimidin-4-yl}piperidin-4-yl)methyl]piperazin-1-yl]methyl}piperidin-1-yl)-1-oxo-2,3-dihydro-1H-isoindol-2-yl]piperidine-2,6-dione] | – | – | < 10 | – | – |
| COc1c(N2CCC(O[C@H]3CC[C@H](CN4CCN(c5cc(-c6n[nH]c7cc(F)c(OC8(C)CC8)cc67)ncn5)CC4)CC3)CC2)ccc2c1CN(C1CCC(=O)NC1=O)C2=O (stereo partly shown) [Compound 280, 3-[4-methoxy-1-oxo-5-(4-{[(1r,4r)-4-[(4-{6-[6-fluoro-5-(1-methylcyclopropoxy)-1H-indazol-3-yl]pyrimidin-4-yl}piperazin-1-yl)methyl]cyclohexyl]oxy}piperidin-1-yl)-2,3-dihydro-1H-isoindol-2-yl]piperidine-2,6-dione] | – | – | < 10 | 50 to 70 | – |
| CC1(Oc2ccc3[nH]nc(-c4cc(N5CCN(C[C@H]6CC[C@H](CN7CCN(c8ccc9c(c8Cl)CN(C8CCC(=O)NC8=O)C9=O)CC7)CC6)CC5)ncn4)c3c2)CC1 (stereo partly shown) [Compound 370, 3-[4-chloro-1-oxo-5-(4-{[(1r,4r)-4-[(4-{6-[5-(1-methylcyclopropoxy)-1H-indazol-3-yl]pyrimidin-4-yl}piperazin-1-yl)methyl]cyclohexyl]methyl}piperazin-1-yl)-2,3-dihydro-1H-isoindol-2-yl]piperidine-2,6-dione] | < 10 | 50 to 70 | – | – | – |
| C[C@H]1CN(c2cc(-c3n[nH]c4cc(F)c(OC5(C)CC5)cc34)ncn2)CCN1CC1(F)CCN(CC2CCN(c3ccc4c(c3F)CN(C3CCC(=O)NC3=O)C4=O)CC2)CC1 (stereo partly drawn) [Compound 192, 3-[4-fluoro-5-[4-[[4-fluoro-4-[[(2S)-4-[6-[6-fluoro-5-(1-methylcyclopropoxy)-1H-indazol-3-yl]pyrimidin-4-yl]-2-methyl-piperazin-1-yl]methyl]-1-piperidyl]methyl]-1-piperidyl]-1-oxo-isoindolin-2-yl]piperidine-2,6-dione] | – | – | – | – | Dmax [1]: ≥ 70%; DC50 [2]: < 10 nM |
| COc1c(N2CCC(O[C@H]3C[C@H](CN4CCN(c5cc(-c6[nH]nc7ccc(OC8(C)CC8)cc67)ncn5)CC4)C3)CC2)ccc2c1CN(C1CCC(=O)NC1=O)C2=O (stereo partly shown) [Compound 293, 3-(4-methoxy-1-oxo-5-{4-[(1r,3r)-3-[(4-{6-[5-(1-methylcyclopropoxy)-2H-indazol-3-yl]pyrimidin-4-yl}piperazin-1-yl)methyl]cyclobutoxy]piperidin-1-yl}-2,3-dihydro-1H-isoindol-2-yl)piperidine-2,6-dione] | – | – | < 10 | 50 to 70 | – |
| C[C@H]1CN(CC2(F)CCN(CC3CCN(c4cc(-c5n[nH]c6ccc(OC7(C)CC7)cc56)ncn4)CC3)CC2)CCN1c1ccc2c(c1F)CN(C1CCC(=O)NC1=O)C2=O (stereo partly drawn) [Compound 355, 3-{4-fluoro-5-[(2S)-4-({4-fluoro-1-[(1-{6-[5-(1-methylcyclopropoxy)-1H-indazol-3-yl]pyrimidin-4-yl}piperidin-4-yl)methyl]piperidin-4-yl}methyl)-2-methylpiperazin-1-yl]-1-oxo-2,3-dihydro-1H-isoindol-2-yl}piperidine-2,6-dione] | – | – | < 10 | 50 to 70 | – |
| COc1c(N2CCC(O[C@H]3C[C@H](N4CC5(CCN(c6cc(-c7[nH]nc8ccc(OC9(C)CC9)cc78)ncn6)CC5)C4)C3)CC2)ccc2c1CN(C1CCC(=O)NC1=O)C2=O (stereo partly shown) [Compound 347, 3-(4-methoxy-1-oxo-5-{4-[(1r,3r)-3-(7-{6-[5-(1-methylcyclopropoxy)-2H-indazol-3-yl]pyrimidin-4-yl}-2,7-diazaspiro[3.5]nonan-2-yl)cyclobutoxy]piperidin-1-yl}-2,3-dihydro-1H-isoindol-2-yl)piperidine-2,6-dione] | – | – | < 10 | 50 to 70 | – |
| CC1(Oc2ccc3n[nH]c(-c4cc(N5CCN(CC6(F)CN(CC7CCN(c8ccc9c(c8F)CN(C8CCC(=O)NC8=O)C9=O)CC7)C6)CC5)ncn4)c3c2)CC1 (stereo not shown) [Compound 306, 3-{4-fluoro-5-[4-({3-fluoro-3-[(4-{6-[5-(1-methylcyclopropoxy)-2H-indazol-3-yl]pyrimidin-4-yl}piperazin-1-yl)methyl]azetidin-1-yl}methyl)piperidin-1-yl]-1-oxo-2,3-dihydro-1H-isoindol-2-yl}piperidine-2,6-dione] | – | – | < 10 | 50 to 70 | – |
| COc1c(N2CCC(O[C@H]3CC[C@H](CN4CCN(c5cc(-c6[nH]nc7ccc(OC8(C)CC8)cc67)ncn5)CC4)CC3)CC2)ccc2c1CN(C1CCC(=O)NC1=O)C2=O (stereo partly shown) [Compound 238, 3-[4-methoxy-1-oxo-5-(4-{[(1r,4r)-4-[(4-{6-[5-(1-methylcyclopropoxy)-2H-indazol-3-yl]pyrimidin-4-yl}piperazin-1-yl)methyl]cyclohexyl]oxy}piperidin-1-yl)-2,3-dihydro-1H-isoindol-2-yl]piperidine-2,6-dione] | < 10 | 50 to 70 | – | – | – |
| CC1(Oc2ccc3[nH]nc(-c4cc(N5CCC(CN6CCN(CC7CCN(c8ccc9c(c8Cl)CN(C8CCC(=O)NC8=O)C9=O)CC7)CC6)CC5)ncn4)c3c2)CC1 (stereo not shown) [Compound 239, 3-[4-chloro-5-[4-[[4-[[1-[6-[5-(1-methylcyclopropoxy)-1H-indazol-3-yl]pyrimidin-4-yl]-4-piperidyl]methyl]piperazin-1-yl]methyl]-1-piperidyl]-1-oxo-isoindolin-2-yl]piperidine-2,6-dione] | < 10 | ≥ 70 | – | – | – |
| CC1(Oc2ccc3[nH]nc(-c4ccnc(N5CCC(O[C@H]6CC[C@H](CN7CCN(c8ccc9c(c8F)CN(C8CCC(=O)NC8=O)C9=O)CC7)CC6)CC5)c4)c3c2)CC1 (stereo partly shown) [Compound 354, 3-(4-fluoro-5-(4-(((1r,4r)-4-((1-(4-(5-(1-methylcyclopropoxy)-1H-indazol-3-yl)pyridin-2-yl)piperidin-4-yl)oxy)cyclohexyl)methyl)piperazin-1-yl)-1-oxoisoindolin-2-yl)piperidine-2,6-dione] | – | – | < 10 | 50 to 70 | – |
